{"source": "paper PMC8876215", "about": "“Anticancer Activity of the Choline Kinase Inhibitor PL48 Is Due to Selective Disruption of Choline Metabolism and Transport Systems in Cancer Cell Lines” (Pharmaceutics, 2022)", "target": "T1, ChoKα1 (choline kinase α1) (Homo sapiens, UniProt P35790)", "T1 construct": "gene CHKA; truncated form of ChoKα1 (Δ75–457), N-terminal 6x His-tag", "T1 sequence (P35790 75-457)": "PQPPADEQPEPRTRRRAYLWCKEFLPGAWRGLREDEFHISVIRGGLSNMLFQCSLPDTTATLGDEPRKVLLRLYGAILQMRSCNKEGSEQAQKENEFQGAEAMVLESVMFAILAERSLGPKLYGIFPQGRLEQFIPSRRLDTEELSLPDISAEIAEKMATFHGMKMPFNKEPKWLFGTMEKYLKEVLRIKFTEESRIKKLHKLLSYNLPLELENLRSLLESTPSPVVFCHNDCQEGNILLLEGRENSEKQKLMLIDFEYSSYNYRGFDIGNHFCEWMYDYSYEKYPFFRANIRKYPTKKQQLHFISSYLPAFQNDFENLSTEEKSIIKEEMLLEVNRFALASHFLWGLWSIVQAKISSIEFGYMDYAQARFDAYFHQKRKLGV", "assay": "radiometric assay: [methyl-14C]choline to phosphocholine by purified recombinant enzyme, TLC and scintillation counting", "assay_type": "biochemical"}
{"smiles": "Clc1ccc2c(N3CCCC3)cc[n+](Cc3ccc(SCCSc4ccc(C[n+]5ccc(N6CCCC6)c6ccc(Cl)cc65)cc4)cc3)c2c1", "note": "[PL48]", "values": [{"measurement": "IC50", "result": "658 ± 67", "unit": "nM"}]}
